Reference: publication PMC9000336, “Development of Bicyclo[3.1.0]hexane-Based A3 Receptor Ligands: Closing the Gaps in the Structure–Affinity Relationships” (Molecules, 2022)
Like-named read-outs stand apart in the source and are kept apart here.

Molecular target: T1, human adenosine A3 receptor (Homo sapiens, UniProt P0DMS8)
T1 construct: expressed in transfected cells; host or cells: CHO cells (CHOhA3R), gift of Dr. K.-N. Klotz (University of Würzburg); membrane preparation
T1 sequence (P0DMS8 1-318): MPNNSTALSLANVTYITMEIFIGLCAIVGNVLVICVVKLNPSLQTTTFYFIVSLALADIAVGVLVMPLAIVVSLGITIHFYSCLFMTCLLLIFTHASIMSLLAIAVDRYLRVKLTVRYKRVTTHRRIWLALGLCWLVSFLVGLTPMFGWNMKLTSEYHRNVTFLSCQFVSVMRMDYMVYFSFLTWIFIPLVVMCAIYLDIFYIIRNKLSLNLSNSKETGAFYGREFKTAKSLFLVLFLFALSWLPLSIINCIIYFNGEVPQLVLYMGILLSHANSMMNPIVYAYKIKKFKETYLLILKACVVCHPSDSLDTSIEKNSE
Experiment: Radioligand displacement assay, human adenosine A3 receptor ([3H]PSB11, CHOhA3R membranes)
Format: binding
Settings: for A3 displacement at 1 µM: footnote a: test compound 1 µM; for A3 displacement at 1 µM / Ki / inhibition at 10 µM: n = 3; for inhibition at 10 µM: test compound 10 µM
Procedure: Chinese hamster ovary (CHO) cells stably expressing the human adenosine A1 receptor (CHOhA1R) were kindly provided by Prof. S. J. Hill and CHO cells stably expressing the human adenosine A3 receptor (CHOhA3R) were a gift from Dr. K.-N. Klotz (University of Würzburg, Germany). Chinese hamster ovary cells stably expressing the human A1-receptor (CHOhA1R) or the human A3-receptor (CHOhA3R) were grown in Dulbecco’s Modified Eagle’s Medium (DMEM) and Ham’s F12 medium (1:1) supplemented with 10% (v/v) newborn calf serum, 50 µg/mL streptomycin, 50 IU/mL penicillin, and 200 µg/mL G418 at 37 °C and 5% CO2. […] All cells were grown to 80–90% confluency and detached from plates by scraping them into 5 mL phosphate-buffered saline. Detached cells were collected and centrifuged at 200 g for 5 min. Pellets derived from 100 15 cm Ø plates were pooled and resuspended in 70 mL of ice-cold 50 mM tris(hydroxymethyl)aminomethane (Tris)-HCl buffer, pH 7.4. A Heidolph Diax 900 homogenizer was used to homogenize the cell suspension. Membranes and the cytosolic fraction were separated by centrifugation at 100,000 g in a Beckman Optima LE-80 K ultracentrifuge (Beckman Coulter, Fullerton, CA, USA) at 4 °C for 20 min. The pellet was resuspended in 35 mL of the Tris-HCl buffer, and the homogenization and centrifugation steps were repeated. Tris-HCl buffer (25 mL) was used to resuspend the pellet, and adenosine deaminase (ADA) was added (0.8 U/mL) to break down endogenous adenosine. Membranes were stored in 250 µL and 500 µL aliquots at −80 °C. Total protein concentrations were measured using the bicinchoninic acid (BCA) method.
A3 Receptor: Membrane aliquots containing 15 µg (CHOhA3R) total protein were incubated in a total volume of 100 µL assay buffer (50 mM Tris-HCl, pH 8.0, supplemented with 10 mM MgCl2, 1 mM EDTA and 0.01% (w/v) CHAPS) at 25 °C for 2 h. Radioligand displacement experiments were performed using six concentrations of competing ligand in the presence of 10 nM [^3H]8-ethyl-4-methyl-2-phenyl-(8R)-4,5,7,8-tetrahydro-1H-imidazo[2.1-i]purin-5-one ([^3H]PSB11). […] Nonspecific binding was determined in the presence of 100 µM NECA. Incubations were terminated by rapid vacuum filtration to separate the bound and free radioligand through prewetted 96-well GF/B filter plates using a PerkinElmer Filtermate-harvester (Perkin Elmer, Groningen, The Netherlands). Filters were subsequently washed 12 times with ice-cold 50 mM Tris-HCl supplemented with 10 mM MgCl2, and 1 mM EDTA, pH 8.0 for CHOhA3R.
The plates of all four adenosine receptor assays were dried at 55 °C after which MicroscintTM-20-cocktail was added (Perkin Elmer, Groningen, The Netherlands).
All experimental data were analyzed using the non-linear regression curve fitting program GraphPad Prism 7.0 (GraphPad Software Inc., San Diego, CA, USA). IC50 values obtained from competition displacement binding data were converted into Ki values using the Cheng–Prusoff equation.

[1] = [3H]PSB11, read-out: A3 Ki ± SEM
[2] = footnote a: tested at 1 µM, read-out: A3 Ki (bound, footnote a)

| Structure (SMILES) | Ki [1] [nM] | inhibition at 10 µM [%] | other results |
| --- | --- | --- | --- |
| CCN(CC)CC.CSc1nc(N)c2ncn([C@H]3[C@H](O)[C@H](O)[C@]4(CNc5c(O)c(=O)c5=O)C[C@H]34)c2n1 [Compound 47, Triethylammonium 2-{[(1R,2R,3S,4R,5S)-4-(6-Amino-2-methylthio-9H-purin-9-yl)-2,3-dihydroxybicyclo[3.1.0]hex-1-yl]methyl}amino-3,4-dioxocyclobut-1-en-1-olate] |  |  | A3 displacement at 1 µM: 6% ^a |
| OC[C@@]12C[C@@H]1[C@@H](n1cnc3c(NCc4ccccc4)cc(Cl)nc31)[C@H](O)[C@@H]2O [Compound 13, (1R,2R,3S,4R,5S)-4-[7-(Benzylamino)-5-chloro-3H-imidazo[4,5-b]pyridin-3-yl]-1-(hydroxymethyl)bicyclo[3.1.0]hexane-2,3-diol] | 460 ± 20 |  |  |
| CSc1nc(N(Cc2ccccc2)Cc2ccccc2)c2ncn([C@H]3[C@H](O)[C@H](O)[C@]4(CO)C[C@H]34)c2n1 [Compound 30, (1R,2R,3S,4R,5S)-4-[6-(Dibenzylamino)-2-methylthio-9H-purin-9-yl]-1-(hydroxymethyl)bicyclo[3.1.0]hexane-2,3-diol] | 380 ± 10 |  | A3R selectivity (versus other P1 receptor subtypes): high A3R selectivity |
| CSc1nc(N)c2ncn([C@H]3[C@H](O)[C@H](O)[C@]4(Cn5cc(CC(=O)O)nn5)C[C@H]34)c2n1 [Compound 45, 2-(1-{[(1R,2R,3S,4R,5S)-4-(6-Amino-2-methylthio-9H-purin-9-yl)-2,3-dihydroxybicyclo[3.1.0]hex-1-yl]methyl}-1H-1,2,3-triazol-4-yl)acetic acid] |  |  | Ki [2]: > 1000 nM |
| Nc1cc(Cl)nc2c1ncn2[C@H]1[C@H](O)[C@H](O)[C@]2(CO)C[C@H]12 [Compound 16, (1R,2R,3S,4R,5S)-4-(7-Amino-5-chloro-3H-imidazo[4,5-b]pyridin-3-yl)-1-(hydroxymethyl)bicyclo[3.1.0]hexane-2,3-diol] | 1600 ± 110 |  |  |
| COC(=O)Cc1cn(C[C@@]23C[C@@H]2[C@@H](n2cnc4c(N)nc(SC)nc42)[C@H](O)[C@@H]3O)nn1 [Compound 41, Methyl 2-(1-{[(1R,2R,3S,4R,5S)-4-(6-amino-2-methylthio-9H-purin-9-yl)-2,3-dihydroxybicyclo[3.1.0]hex-1-yl]methyl}-1H-1,2,3-triazol-4-yl)acetate] |  |  | A3 displacement at 1 µM: 3% ^a |
| COc1ccc(CNc2cc(Cl)nc3c2ncn3[C@H]2[C@H](O)[C@H](O)[C@]3(CO)C[C@H]23)cc1 [Compound 15, (1R,2R,3S,4R,5S)-4-{5-Chloro-7-[(4-methoxy)benzylamino]-3H-imidazo[4,5-b]pyridin-3-yl}-1-(hydroxymethyl)bicyclo[3.1.0]hexane-2,3-diol] | 500 ± 10 |  |  |
| OC[C@@]12C[C@@H]1[C@@H](n1cnc3c(N(Cc4ccccc4)Cc4ccccc4)nc(Cl)nc31)[C@H](O)[C@@H]2O [Compound 27, (1R,2R,3S,4R,5S)-4-[6-(Dibenzylamino)-2-chloro-9H-purin-9-yl]-1-(hydroxymethyl)bicyclo[3.1.0]hexane-2,3-diol] |  | 4 | potency at the A3 receptor: not potent |
| CSc1nc(N)c2ncn([C@H]3[C@H](O)[C@H](O)[C@]4(Cn5cc(CCC(=O)O)nn5)C[C@H]34)c2n1 [Compound 46] |  |  | Ki [2]: > 1000 nM |
| CCN(CC)CC.CSc1nc(N)c2ncn([C@H]3[C@H](O)[C@H](O)[C@]4(CNS(=O)(=O)CC(=O)O)C[C@H]34)c2n1 [Compound 48, Triethylammonium 2-(N-{[(1R,2R,3S,4R,5S)-4-(6-amino-2-methylthio-9H-purin-9-yl)-2,3-dihydroxybicyclo[3.1.0]hex-1-yl]methyl}sulfamoyl)acetate] |  |  | A3 displacement at 1 µM: 5% ^a |
| Nc1ncnc2c1ncn2[C@H]1[C@H](O)[C@H](O)[C@]2(CO)C[C@H]12 [Compound 36, (N)-methanocarba adenosine] | 960 ± 50 |  |  |
| CSc1nc(N(Cc2ccccc2)Cc2ccccc2)c2ncn([C@H]3[C@H](O)[C@H](O)[C@]4(CCl)C[C@H]34)c2n1 [Compound 31, (1S,2R,3S,4R,5S)-4-[6-(Dibenzylamino)-2-methylthio-9H-purin-9-yl]-1-(chloromethyl)bicyclo[3.1.0]hexane-2,3-diol] |  | 26 | potency at the A3 receptor: not potent |
| CSc1nc(N)c2ncn([C@H]3[C@H](O)[C@H](O)[C@]4(Cn5cc(C(=O)O)nn5)C[C@H]34)c2n1 [Compound 44, 1-{[(1R,2R,3S,4R,5S)-4-(6-Amino-2-methylthio-9H-purin-9-yl)-2,3-dihydroxybicyclo[3.1.0]hex-1-yl]methyl}-1H-1,2,3-triazole-4-carboxylic acid] |  |  | Ki [2]: > 1000 nM |
| OC[C@@]12C[C@@H]1[C@@H](n1cnc3c(N(Cc4ccccc4)Cc4ccccc4)ncnc31)[C@H](O)[C@@H]2O [Compound 26, (1R,2R,3S,4R,5S)-4-[6-(Dibenzylamino)-9H-purin-9-yl]-1-(hydroxymethyl)bicyclo[3.1.0]hexane-2,3-diol] |  | 8 | potency at the A3 receptor: not potent |
| CSc1cc(NCc2ccccc2)c2ncn([C@H]3[C@H](O)[C@H](O)[C@]4(CO)C[C@H]34)c2n1 [Compound 14, (1R,2R,3S,4R,5S)-4-[7-(Benzylamino)-5-methylthio-3H-imidazo[4,5-b]pyridin-3-yl]-1-(hydroxymethyl)bicyclo[3.1.0]hexane-2,3-diol] | 1510 ± 30 |  |  |

More lines, main results first:

| Ki [1] [nM] | inhibition at 10 µM [%] | Structure (SMILES) | other results |
| --- | --- | --- | --- |
|  | 37 | CSc1nc(N)c2ncn([C@H]3[C@H](O)[C@H](O)[C@]4(Cn5cc(CO)nn5)C[C@H]34)c2n1 [Compound 39, (1R,2R,3S,4R,5S)-4-(6-Amino-2-methylthio-9H-purin-9-yl)-1-{[4-(hydroxymethyl)-1H-1,2,3-triazol-1-yl]methyl}bicyclo[3.1.0]hexane-2,3-diol] |  |
|  | 13 | CSc1nc(N)c2ncn([C@H]3[C@H](O)[C@H](O)[C@]4(Cn5cc(CN)nn5)C[C@H]34)c2n1 [Compound 43, (1R,2R,3S,4R,5S)-4-(6-Amino-2-methylthio-9H-purin-9-yl)-1-{[4-(aminomethyl)-1H-1,2,3-triazol-1-yl]methyl}bicyclo[3.1.0]hexane-2,3-diol] |  |
|  | 8 | COC(=O)c1cn(C[C@@]23C[C@@H]2[C@@H](n2cnc4c(N)nc(SC)nc42)[C@H](O)[C@@H]3O)nn1 [Compound 40, Methyl 1-{[(1R,2R,3S,4R,5S)-4-(6-amino-2-methylthio-9H-purin-9-yl)-2,3-dihydroxybicyclo[3.1.0]hex-1-yl]methyl}-1H-1,2,3-triazole-4-carboxylate] |  |
| 6350 ± 230 |  | COC(=O)CCc1cn(C[C@@]23C[C@@H]2[C@@H](n2cnc4c(N)nc(SC)nc42)[C@H](O)[C@@H]3O)nn1 [Compound 42, Methyl 3-(1-{[(1R,2R,3S,4R,5S)-4-(6-amino-2-methylthio-9H-purin-9-yl)-2,3-dihydroxybicyclo[3.1.0]hex-1-yl]methyl}-1H-1,2,3-triazol-4-yl)propanoate] |  |
